# Patent publication US20220340564A1, “ANTIBACTERIAL COMPOUNDS” (Janssen Sciences Ireland Unlimited Company, priority 2019, published 2022)
# Read-outs that look alike come from different tables or passages of the source.
# What was measured:
# hERGdof = hERGdof (Homo sapiens, UniProt Q12809); assay: CVS panel, hERGdof; type: binding
# [1] = Bioavailability in rodents
# [2] = Microsomal stability CLint (M); conditions: mouse, microsomes
# [3] = test system: Mycobacterium tuberculosis strain EH4.0 expressing green-fluorescent protein (GFP); assay: microbe, parasite or virus in culture; type: cell-based; conditions: 168 h, read-out: pIC50 (converted)
# Ca Ch = assay: CVS panel, Ca channel
# Excerpt: (§1) The compounds of the invention/examples may have advantages associated with in vitro potency, kill kinetics (i.e. bactericidal effect) in vitro, PK properties, food effect, safety/toxicity (including liver toxicity, coagulation, […]), metabolic stability, Ames II negativity, MNT negativity, aqueous based solubility (and ability to formulate) and/or cardiovascular effect e.g. on animals (e.g. anesthetized guinea pig). The data below that was generated/calculated may be obtained using standard methods/assays, for instance that are available in the literature or which may be performed by a supplier (e.g. Microsomal Stability Assay—Cyprotex, Mitochondrial toxicity (Glu/Gal) assay —Cyprotex, as well as literature CYP cocktail inhibition assays). In some instances, GSH was measured (reactive metabolites, glucuronidation) to observe if a dihydrodiol is observed by LCMS (fragmentation ions), which would correspond to a dihydroxylation on the core heterocycle.
# [4] = Mitochondrial toxicity (Glu/Gal) assay; type: cell-based
# Excerpt: as §1
# Na Ch = assay: CVS panel, Na channel
# [5] = Microsomal stability CLint (H); conditions: human, microsomes
# [6] = test system: Cyp-450 (cocktail, isoforms not named); assay: Cocktail Cyp-450 inhibition; type: in vitro ADME
# Excerpt: as §1
# in vitro [7] = conditions: human, microsomes
# in vitro [8] = conditions: mouse, microsomes
# CYP3A4 = CYP3A4 (Homo sapiens, UniProt P08684); assay: Cocktail Cyp-450 inhibition, CYP3A4; type: in vitro ADME
# CYP3A4, sequence (P08684 whole entry): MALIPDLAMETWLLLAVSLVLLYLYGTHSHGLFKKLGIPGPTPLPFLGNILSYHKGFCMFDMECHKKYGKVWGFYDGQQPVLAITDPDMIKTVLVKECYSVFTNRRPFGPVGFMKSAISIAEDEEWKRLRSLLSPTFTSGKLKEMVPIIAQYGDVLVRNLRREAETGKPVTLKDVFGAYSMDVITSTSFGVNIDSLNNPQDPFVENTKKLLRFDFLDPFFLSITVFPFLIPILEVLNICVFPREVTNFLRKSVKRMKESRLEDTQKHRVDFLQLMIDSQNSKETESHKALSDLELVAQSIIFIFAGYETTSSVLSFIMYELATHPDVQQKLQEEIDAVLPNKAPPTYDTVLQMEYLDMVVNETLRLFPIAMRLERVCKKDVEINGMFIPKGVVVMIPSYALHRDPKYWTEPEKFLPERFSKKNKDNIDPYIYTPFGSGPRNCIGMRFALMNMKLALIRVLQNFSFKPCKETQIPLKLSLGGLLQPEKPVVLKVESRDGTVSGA
# M. tuberculosis H37Rv = M. tuberculosis H37Rv inside macrophages; J. Medicinal Chemistry, 2014, 57 (12), pp 5293-5305; cited from earlier work
# Kinase panel = assay: Kinase panel; type: biochemical
# [9] = in vivo
# physchem = conditions: thermodynamic from solid
# in vivo = conditions: rat, po, 5 mg/kg
# Procedure: Oral Bioavailability of Compound 161 in Rat
# Compound 161 was administer PO in rat (5 mg/kg, PEG4000 (sol.), 0.5 w/v Methocel (susp.) and the following results were obtained for the solution and suspension.
# in vitro [10] = conditions: mouse
# AMES II = type: cell-based
# Excerpt: as §1
# in vitro [11] = conditions: human
# in vitro [12] = conditions: rat, hepatocytes
# in vitro [13] = conditions: human, hepatocytes
# in vitro [14] = conditions: dog, hepatocytes
# in vitro [15] = conditions: mouse, hepatocytes
# Cyp 3A4 = Cyp 3A4 induction; conditions: at 1 μM
# [16] = unit inferred, read-out: Cocktail Cyp-450, IC50
# hERGdof, sequence (Q12809 whole entry): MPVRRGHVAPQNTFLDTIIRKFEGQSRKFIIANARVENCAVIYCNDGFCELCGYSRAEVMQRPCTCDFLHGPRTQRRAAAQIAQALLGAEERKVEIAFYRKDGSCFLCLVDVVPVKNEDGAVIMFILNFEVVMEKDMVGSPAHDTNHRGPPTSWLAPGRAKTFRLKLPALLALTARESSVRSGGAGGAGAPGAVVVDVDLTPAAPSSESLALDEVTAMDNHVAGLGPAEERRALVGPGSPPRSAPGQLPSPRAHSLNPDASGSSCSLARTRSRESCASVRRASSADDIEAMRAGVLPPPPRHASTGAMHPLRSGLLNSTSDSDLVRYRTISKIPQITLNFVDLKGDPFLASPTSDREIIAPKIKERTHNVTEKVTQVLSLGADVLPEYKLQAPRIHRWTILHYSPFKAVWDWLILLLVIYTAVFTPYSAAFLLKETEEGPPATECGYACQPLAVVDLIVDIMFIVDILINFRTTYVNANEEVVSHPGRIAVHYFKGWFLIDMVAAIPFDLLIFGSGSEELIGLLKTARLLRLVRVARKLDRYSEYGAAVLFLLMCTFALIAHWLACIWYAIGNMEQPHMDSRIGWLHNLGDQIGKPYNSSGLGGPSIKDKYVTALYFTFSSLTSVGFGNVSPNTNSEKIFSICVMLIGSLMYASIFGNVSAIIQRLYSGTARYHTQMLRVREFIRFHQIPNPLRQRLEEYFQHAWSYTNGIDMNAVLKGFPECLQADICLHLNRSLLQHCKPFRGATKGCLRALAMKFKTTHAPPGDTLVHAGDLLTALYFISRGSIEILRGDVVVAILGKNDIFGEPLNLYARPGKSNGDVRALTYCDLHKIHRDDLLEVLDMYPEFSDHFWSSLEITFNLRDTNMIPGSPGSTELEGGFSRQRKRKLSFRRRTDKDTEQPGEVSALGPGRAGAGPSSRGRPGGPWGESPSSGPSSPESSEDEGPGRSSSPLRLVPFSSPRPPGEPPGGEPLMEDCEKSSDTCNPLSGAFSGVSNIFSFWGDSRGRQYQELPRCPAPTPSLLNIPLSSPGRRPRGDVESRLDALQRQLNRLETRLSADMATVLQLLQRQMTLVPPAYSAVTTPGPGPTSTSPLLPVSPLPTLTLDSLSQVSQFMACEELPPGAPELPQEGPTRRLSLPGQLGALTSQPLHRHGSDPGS
compound,measurement,setting,value
CCc1nc2ccc(Cl)cn2c1C(=O)NCc1ccc(N2CCN(S(=O)(=O)C(F)(F)F)C=N2)cc1 [Compound 1],IC50,hERGdof,> 10 µM
same,bioavailability (as shown in rodents),[1],good bioavailaibility
same,microsomal CLint,[2],21.5 µL/min/mg
same,IC50,[3],0.00708 µM
same,IC50,Ca Ch,> 10 µM
same,Glu/Gal assay ratio (mitotoxicity),[4],< 3
same,IC50,Na Ch,> 10 µM
same,microsomal CLint,[5],29.6 µL/min/mg
same,IC50,[6]; [16],> 20 µM
CCc1nc2ccc(Cl)cn2c1C(=O)NCc1ccc(N2CCN(S(C)(=O)=O)C=N2)cc1 [Compound 20],microsomal CLint,in vitro [7],56.6 µL/min/mg
same,IC50,"hERGdof; read-out: CVS hERGdof, IC50",> 10 µM
same,microsomal CLint,in vitro [8],15.9 µL/min/mg
same,IC50,[3],0.0316 µM
same,IC50,Ca Ch,> 10 µM
same,IC50,CYP3A4,13.2 µM
same,IC50,Na Ch,> 10 µM
same,IC50,[6]; [16],> 20 µM
CCc1nc2ccc(Cl)cn2c1C(=O)NCc1ccc(N2CCC(c3ccc(OC(F)(F)F)cc3)CC2)cc1 [Compound Q203],MIC50,M. tuberculosis H37Rv,0.28 nM
CCc1nc2ncc(C)cn2c1C(=O)NCc1ccc(N2CCN(S(=O)(=O)C(F)(F)F)C=N2)c(F)c1 [Compound 161],Kinase panel,Kinase panel,negative
same,bioavailability (as shown in rodents),[9],good bioavailaibility
same,solubility thermodynamic,physchem; fassif,5 µg/mL
same,solubility thermodynamic,physchem; fessif,16 µg/mL
same,solubility thermodynamic,"physchem; pH 2, simulated gastric fluid",33 µg/mL
same,solubility thermodynamic,"physchem; pH 7, aqueous buffer",< 0.02 µg/mL
same,AUC0-inf,in vivo,5610 ± 2747 ng·h/mL
same,AUC0-inf,in vivo; AUC0-inf,10900 ± 1720 ng·h/mL
same,Cmax,in vivo; Cmax,1230 ± 406 ng/mL
same,Tmax,in vivo; Tmax,4 h
same,half-life,in vivo; t1/2,3.55 ± 0.45 h
same,IC50,"hERGdof; read-out: CVS hERGdof, IC50",15.8 µM
same,fraction unbound,in vitro [10],0.0245
same,IC50,[3],0.000776 µM
same,IC50,Ca Ch,> 10 µM
same,AMES II,AMES II,negative
same,fraction unbound,in vitro [11],0.015
same,hepatocyte CLint,in vitro [12],19 µL/min/1e6 cells
same,hepatocyte CLint,in vitro [13],6.7 µL/min/1e6 cells
same,Glu/Gal assay ratio (mitotoxicity),[4],< 3
same,IC50,Na Ch,> 10 µM
same,hepatocyte CLint,in vitro [14],4.7 µL/min/1e6 cells
same,hepatocyte CLint,in vitro [15],12 µL/min/1e6 cells
same,Cyp 3A4 induction (% control),Cyp 3A4,3.0 % control
same,IC50,[6],> 20 µM
